This note sets out measurements from PubChem BioAssay AID1645867 (Buhrlage Lab, Dana-Farber Cancer Institute and Novartis …, 2021).

Each structure is given as a SMILES string. Active and inactive are the calls of the source. How the calls were made is not given here. Where only a bound is given, the exact number is not on record here.

One may read the IC50 as the point on the concentration scale where inhibition reaches its midpoint.

Ubiquitin carboxyl-terminal hydrolase isozyme L1 (Homo sapiens), sequence (P09936 whole entry, looked up): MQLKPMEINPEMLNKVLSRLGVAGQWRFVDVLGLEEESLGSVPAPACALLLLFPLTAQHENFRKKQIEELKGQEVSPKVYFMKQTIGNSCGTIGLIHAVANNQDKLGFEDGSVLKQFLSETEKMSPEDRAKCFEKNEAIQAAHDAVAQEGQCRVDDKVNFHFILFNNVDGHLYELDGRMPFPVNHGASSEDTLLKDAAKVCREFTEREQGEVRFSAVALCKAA

The assay has as its target Ubiquitin carboxyl-terminal hydrolase isozyme L1 (Homo sapiens) (UniProt P09936). The assay can be described thus: UCH-L1 deubiquitylase inhibitors, biochemical concentration-response, hit retest (AID 1645867). Conditions: recombinant UCHL1 deubiquitinase activity assay.
Take `Cc1ccc(C2SCC(=O)Nc3c2c(=O)[nH]n3C2CCCCC2)cc1` (stereo unspecified): the IC50 is > 25 µM (inactive). Then `CN(c1ccccc1)S(=O)(=O)c1ccc(C(=O)Nc2cccc(C#N)c2)cc1`, with > 25 µM (inactive); and `CC1O[C@@H](c2ccc3c(c2O)C(=O)C2=C(C3=O)[C@@]3(O)C(=O)C(O)[C@](C)(O)C[C@@]3(O)C=C2)CC[C@@H]1OC(=O)/C=C/C=C/C=C/[C@@H]1O[C@@](C)(C(=O)O)O[C@H]1C` (stereo partly specified), with 4.57 µM; and `Cc1cc(C(=O)NC2(O)C(=O)c3ccccc3C2=O)n(C)n1`, with 20.6 µM. With `Cc1noc(C)c1CN1CCn2c1nc(-c1ccccc1)cc2=O`, the IC50 is > 25 µM (inactive). Then `COC(=O)C1(Cc2ccc(O)cc2)OC(=O)C(O)=C1c1ccc(O)cc1` (stereo unspecified), with 18.9 µM; and `Cc1ccc(-n2nc3c(c2NC(=O)c2ccc(F)c(F)c2)CS(=O)(=O)C3)cc1`, with > 25 µM (inactive); and `Cc1ccc(NC(=O)C2C3C=CC4(O3)C2C(=O)N(C2CCCCC2)C4C(=O)NC2CCCCC2)cc1C` (stereo unspecified), with > 25 µM (inactive). As to `CC1=C(C)C(c2c(-c3ccc(C)cc3)[nH]c3ccccc23)N(C(C)(C)C)C1=O` (stereo unspecified), the IC50 is > 25 µM (inactive). The value for `c1ccc(-n2nnc(-c3noc(-c4ccc[nH]4)n3)c2-c2ccncc2)cc1` was > 25 µM (inactive). The value for `COc1cccc2cc(C(=O)Nc3nc(-c4ccncc4)cs3)oc12` was > 25 µM (inactive); that for `O=C(NC1(O)C(=O)c2ccccc2C1=O)c1cccc2c1-c1ccccc1C2=O` was 15.6 µM.

As to `CCCC1(c2ccccc2)NC(=O)N(Cc2ccc(Cl)cc2)C1=O` (stereo unspecified), the IC50 was > 25 µM (inactive). `CCOc1ccc(-c2nnc(NC(=O)C3CCN(S(=O)(=O)c4ccc5c(c4)CCC5)CC3)o2)cc1`: the IC50 was > 25 µM (inactive). Consider `N#Cc1cccc(NC(=O)Nc2cccn(Cc3ccccc3F)c2=O)c1`, for which the IC50 was 17.1 µM. Then `O=C(OCC(=O)N1CCOCC1)c1ccccc1OCc1ccccc1Cl`, with > 25 µM (inactive). In the case of `Cc1cccc(-c2nc(NC(=O)COc3ccc(F)cc3)no2)c1`, the IC50 was > 25 µM (inactive). Then `NC(=O)C1(N2CCCCC2)CCN(CC(=O)Nc2cc(Cl)ccc2Cl)CC1`, with > 25 µM (inactive); and `O=C(COc1ccc(N2CC(C(=O)NCc3ccc4c(c3)OCO4)CC2=O)cc1)Nc1ccc(Cl)cc1` (stereo unspecified), with > 25 µM (inactive).

Take `CCOc1ccccc1C1CC(=O)Nc2ccc3ccccc3c21` (stereo unspecified): the IC50 was > 25 µM (inactive).

As for `O=C(COc1ccccc1)Nc1ccc(-c2nc3cnccc3o2)c(O)c1`, the IC50 is > 25 µM (inactive).

In the case of `CSc1ncccc1C(=O)OCc1ccccc1`, the IC50 was > 25 µM (inactive).

Take `Cc1nc(-c2ccccc2)n(Cc2ccc(F)cc2)c(=O)c1CCO`: the IC50 is > 25 µM (inactive). The value for `Cc1ccc(S(=O)(=O)N2CCCCC2)cc1NC(=O)c1ccc(C#N)cc1` was > 25 µM (inactive); that for `Cc1ccccc1NC(=O)Nc1ccccc1OCc1cc(=O)n2cccc(C)c2n1` was > 25 µM (inactive); that for `COc1ccc(OCC(=O)N(Cc2cccc3ccccc23)c2ccccn2)cc1` was > 25 µM (inactive).

Consider `COc1ccc(Nc2nnc(Cc3ccc(Cl)cc3)c(=O)[nH]2)cc1`, for which the IC50 was > 25 µM (inactive). The value for `CCC(C)Nc1ncnc2c1CN(C1CCCNCC1)C(=O)CN2C` (stereo unspecified) was > 25 µM (inactive). On to `O=C(Nc1cccc(F)c1)N1C[C@@H]2c3nccn3-c3ccccc3[C@@H]2C1`, for which the IC50 was > 25 µM (inactive). Take `Cc1c(Cl)ccc2sc(N3CCN(C(=O)c4ccn(C)n4)CC3)nc12`: the IC50 was > 25 µM (inactive). Then `Cc1ccc(C)c(Cn2cnc3c(nnn3-c3cccc(F)c3)c2=O)c1`, with > 25 µM (inactive); and `COc1ccc(C(=O)COC(=O)c2ccccc2NS(=O)(=O)c2ccc(O)c([N+](=O)[O-])c2)cc1`, with > 25 µM (inactive); and `CC1(C)Cc2nc(N3CCCC3)c(C#N)cc2CS1`, with > 25 µM (inactive). `COc1ccc2nc(N3CCN(C(=O)C4CCCCC4)CC3)sc2c1`: the IC50 is > 25 µM (inactive). Then `COc1ccc(CCN2COc3c(cc(Cl)c4cccnc34)C2)cc1OC`, with > 25 µM (inactive).

Turning to `Cc1nn(-c2ccc(F)cc2)c(C)c1S(=O)(=O)N1CCN(c2ncccn2)CC1`, the IC50 was > 25 µM (inactive). Then `CCOC(=O)c1ccc(Oc2sccc2[N+](=O)[O-])cc1`, with > 25 µM (inactive); and `CC(C)=CCC(O)C1=CC(=O)c2c(O)ccc(O)c2C1=O` (stereo unspecified), with 3.09 µM; and `O=C(CSc1ccc(-c2cccc([N+](=O)[O-])c2)nn1)Nc1cccc(F)c1`, with > 25 µM (inactive). Then `O=C(NCC(O)c1ccc([N+](=O)[O-])cc1)c1cccc(S(=O)(=O)N2CCOCC2)c1` (stereo unspecified), with > 25 µM (inactive). The value for `Cc1cc(C)n2nc(Cc3ccccc3)nc2n1` was > 25 µM (inactive). `COc1ccc(-c2noc(CN3CCCC3c3cnn(C)c3)n2)cc1` (stereo unspecified): the IC50 is > 25 µM (inactive).

Take `Cc1nn(-c2ccccc2)c2c1N=C1C(Cl)=CC(Cl)=CN1C21C(=O)Nc2ccccc21` (stereo unspecified): the IC50 is 3.72 µM. The value for `COc1ccc(CCn2c(-c3ccccc3)nc3c(c(=O)c4ccccc4n3C)c2=O)cc1OC` was > 25 µM (inactive). The value for `Cc1ccc2cc(-c3noc(CCC(=O)NC4CCCC4)n3)c(=O)[nH]c2c1` was > 25 µM (inactive); that for `COc1ccc(Cl)cc1NC(=O)c1cc(-c2ccccn2)n[nH]1` was > 25 µM (inactive); that for `CC1OC2CC(O)C1(O)C1=C2C(O)=C(C(N)=O)C(=N)C1=O` (stereo unspecified) was 11.6 µM.

`O=c1[nH]oc(O)c1-c1ncc(C(F)(F)F)cc1Cl`: the IC50 is > 25 µM (inactive). Then `CCc1ccc(NC(=O)Cn2c(=O)n(Cc3ccccc3)c(=O)c3nn(CC)cc32)cc1`, with > 25 µM (inactive).

As to `Cc1ccccc1NC(=O)Cc1csc2nc(-c3ccc(F)cc3)cn12`, the IC50 is > 25 µM (inactive). On to `Cc1ccc(Cn2c(C(=O)O)c(CNCc3cccnc3)c3ccccc32)cc1`, for which the IC50 was > 25 µM (inactive).

On to `COc1ccccc1-c1nc(-c2cn(-c3ccc(F)cc3)nn2)no1`, for which the IC50 is > 25 µM (inactive). Then `O=C1C=C(O)c2c(O)cccc2C1=O`, with > 25 µM (inactive). Then `O=C(NCc1ccco1)c1ccc(Cn2c(SCc3ccccc3)nc3ccncc32)cc1`, with > 25 µM (inactive); and `Cc1cccc(NC(=O)Cn2cccc(S(=O)(=O)N3CCC(C)CC3)c2=O)c1C`, with > 25 µM (inactive); and `CCOc1ccccc1NC(=O)Cn1c(=O)n(CCCC(=O)NCc2ccc(C)cc2)c(=O)c2sccc21`, with > 25 µM (inactive). The value for `CO/C1=C\C(C)=C\[C@@H](C)[C@@H](O)[C@H](C)C/C(C)=C/C=C/[C@H](OC)[C@@H]([C@@H](C)[C@@H](O)[C@H](C)[C@@]2(O)C[C@@H](OC(=O)/C=C/C(=O)NC3=C(O)CCC3=O)[C@H](C)[C@@H](C(C)C)O2)OC1=O` was > 25 µM (inactive); that for `COc1cn(CC(=O)Nc2ccc(Cl)cc2)c(CSc2ccccc2)cc1=O` was > 25 µM (inactive); that for `O=C(C1CCCCC1)N1CCN(c2nc3c(F)cccc3s2)CC1` was > 25 µM (inactive). `Cc1ccc(-n2ccn3c(CCC(=O)NCc4ccc(F)cc4)nnc3c2=O)cc1C`: the IC50 was > 25 µM (inactive). Then `Cn1cc(NC(=O)Nc2cccc(C(F)(F)F)c2)c2ccccc2c1=O`, with > 25 µM (inactive); and `COc1ccc(CNC(=O)c2ccc3c(=O)nc4c(-c5cccc(C)c5)n[nH]n4c3c2)cc1`, with > 25 µM (inactive); and `O=C(NCCc1nc2ccccc2n1CCOc1ccccc1Cl)C1CCCCC1`, with > 25 µM (inactive). For the compound `CC(C)NC(=O)Cn1ccn2nc(-c3ccc(Cl)cc3)cc2c1=O`, the IC50 was > 25 µM (inactive). For the compound `Cc1ccc(NC(=O)c2nnn(CC(=O)Nc3cccc(C)c3C)c2N)cc1C`, the IC50 is > 25 µM (inactive).

In the case of `COc1ccc(C(=O)Nc2nnc(S(=O)(=O)N3CCCc4ccccc43)s2)cc1OC`, the IC50 is > 25 µM (inactive).

As for `O=c1c(O)c(-c2ccc(O)c(O)c2)oc2cc(O)cc(O)c12`, the IC50 was 2.32 µM. The value for `O=C(COc1ccc(N2CC(C(=O)NCc3ccc4c(c3)OCO4)CC2=O)cc1)Nc1ccc(F)cc1` (stereo unspecified) was > 25 µM (inactive); that for `COC(=O)Nc1cccn(Cc2c(Cl)cccc2Cl)c1=O` was > 25 µM (inactive). The value for `COc1cc(NC(=O)Cn2cc(C(=O)c3ccccc3)c(=O)c3cc(Cl)ccc32)cc(OC)c1` was > 25 µM (inactive); that for `CCCc1ccc(C(=O)[C@@H]2[C@@H](C(=O)c3cccs3)N3c4ccc(C)cc4C(C)=C[C@@H]3[C@@]23C(=O)Nc2ccccc23)cc1` was > 25 µM (inactive); that for `O=C(COc1ccc(Cl)cc1Cl)Nc1ccccc1-c1nc2ccccc2[nH]1` was > 25 µM (inactive). Regarding `CC1OC2CC(=O)OC2C2=C1C(=O)c1c(O)cccc1C2=O` (stereo unspecified), the IC50 is > 25 µM (inactive). Take `O=C(COc1ccc(Cl)cc1Cl)Nc1ccc2[nH]c(=O)[nH]c2c1`: the IC50 was > 25 µM (inactive).

For the compound `O=C(NCCc1nc2ccccc2n1Cc1ccccc1F)c1ccco1`, the IC50 was > 25 µM (inactive). As to `Cc1ccc(NC(=O)Nc2ccc(C)n(CC(=O)Nc3cccc(C)c3)c2=O)cc1`, the IC50 was > 25 µM (inactive). For `Cc1ccc(C2CC(=O)C3=C(C2)Nc2ccccc2N(C(=O)c2ccccc2)C3c2ccccc2)cc1` (stereo unspecified), the IC50 is > 25 µM (inactive). As to `COc1cccc(NC(=O)Cn2c3ccccc3n3c(=O)cc(-c4ccccc4)nc23)c1`, the IC50 was > 25 µM (inactive). Then `Cc1nn(-c2ccccc2)c(C)c1S(=O)(=O)N1CCN(c2ccccn2)CC1`, with > 25 µM (inactive).

Turning to `CC(C)Cc1ccc(-c2cc(-c3ccc(C(F)(F)F)cc3)c(C#N)c(=O)[nH]2)cc1`, the IC50 is > 25 µM (inactive). Take `COc1ccc(Cl)cc1NC(=O)CSc1ncnc2nc[nH]c12`: the IC50 was > 25 µM (inactive).
